Where two headings read alike, the source gives them in different places.
Assays:
[1] = Solvency test: solubility of butyl methoxydibenzoylmethane (avobenzone) in solvent, visible crystals after storage
Experimental: (§1) In the testing provided below, “soluble” (or “solubilize”), in relation to the solubility of a solid solute being tested, means that no visible crystals may be seen after a prescribed storage period at a storage condition. The storage period can vary. Suitable storage periods include about 24 hours, about 1 week, and about 30 days. Suitable storage conditions include ambient conditions or cold storage at 5° C. (approximately 1 atm). In certain embodiments, solubility may be determined after a 24 hour storage period at ambient conditions. In other embodiments, solubility may be determined after 20 days in cold storage. Other testing parameters may include storage for prolonged time periods (e.g., 30 day, 50 days, 60 days, 90 days) and at variable temperatures (e.g., 5° C., 50° C.).
The solvency of an isosorbide diester within the scope of the present invention was tested against two conventional, industry standard solvents. […] Various ratios of the solute:solvent were prepared by mixing solvents and the solid sunscreen (solute) and heating to 70° C. Upon reaching 70° C., the examples may be mixed for about 10 minutes. The mixtures are placed in a covered vial and cooled to the storage temperature. Solubility was evaluated for samples stored 24 hours after mixing at room temperature. […]

[2] = Solvency test: solubility of bis-ethylhexyloxyphenol methoxyphenyl triazine (bemotrizinol) in solvent, visible crystals after storage
Experimental: as §1
The solvency of an isosorbide diester within the scope of the present invention was tested against two conventional, industry standard solvents. […] Solubility was also evaluated for samples stored for 7 day at 5° C. followed by equilibration to ambient conditions.

[3] = solute avobenzone (PARSOL 1789), 24 hour rest at Ambient Conditions
[4] = solute bemotrizinol (Tinosorb S), 24 hour rest at Ambient Conditions
[5] = solute bemotrizinol (Tinosorb S), 30 day storage at 5° C.

Row | Structure (SMILES) | Solubility at Solute:Solvent Ratio 1:3 [1, 3] | Solubility at Solute:Solvent Ratio 1:4 [1, 3] | Solubility at Solute:Solvent Ratio 1:4 ([1]; solute avobenzone (PARSOL 1789), 30 day storage at 5° C.) | Solvency compared with the industry leading solvents ([1]; solute avobenzone, versus isopropyl lauroyl sarcosinate and C12-15 alkyl benzoate) | Solubility at Solute:Solvent Ratio 1:3 [2, 4] | Solubility at Solute:Solvent Ratio 1:4 [2, 4] | Solubility at Solute:Solvent Ratio 1:6 [2, 4] | Solubility at Solute:Solvent Ratio 1:8 [2, 4] | Solubility at Solute:Solvent Ratio 1:3 [2, 5] | Solubility at Solute:Solvent Ratio 1:6 [2, 5] | Solubility at Solute:Solvent Ratio 1:8 [2, 5] | Solubility at Solute:Solvent Ratio 14 [2, 5] | Solvency compared with the industry leading solvents ([2]; solute bemotrizinol, versus isopropyl lauroyl sarcosinate and C12-15 alkyl benzoate) | Solubility at Solute:Solvent Ratio 1:2 [1] | Solubility at Solute:Solvent Ratio 1:3 [1] | Solubility at Solute:Solvent Ratio 1:4 [1] | Solubility at Solute:Solvent Ratio 1:4 [2] | Solubility at Solute:Solvent Ratio 1:6 [2] | Solubility at Solute:Solvent Ratio 1:8 [2]
1 | CCCCCCCC(=O)OC1COC2C(OC(=O)CCCCCCC)COC12 (stereo not shown) [Isosorbide dicaprylate, isosorbide dicaprylate] | S | S | S | equivalent to the industry leading solvents | S | S | S | S | S | S | S | S | superior to the industry leading solvents | – | – | – | – | – | –
2 | CCCCCCCCCCCC(=O)N(C)CC(=O)OC(C)C [Isopropyl lauroyl sarcosinate, isopropyl lauroyl sarcosinate, reference compound] | – | – | – | – | – | – | – | – | – | – | – | – | – | S | S | S | S | S | S

Source: patent publication US9192552B2, “Personal care compositions with improved solubility of a solid UV active” (priority 2011, dated 2015)
